In patent US20170267727A1, “Conjugates of pH Low Insertion Peptide and Monomethyl Auristatins in the Treatment of Solid Tumors” (Lehigh University, priority 2016, published 2017):
Like-named read-outs stand apart in the source and are kept apart here. Positions of bridges follow the written chain, without caps; N, C: chain ends. Non-standard residues stand in square brackets, D forms with d. Chains are numbered I, II in the order given. *: point of attachment. Dolaproine = CO[C@@H]([C@@H]1CCCN1)[C@@H](C)C(=O)O; Dil = CC[C@H](C)[C@H](NC)[C@@H](CC(=O)O)OC; X1 = C[C@@H](N*)[C@@H](O)c1ccccc1; NMeV = CN[C@H](C(=O)O)C(C)C; Mpa = O=C(O)CCS

Tests used:
[1] = test system: MDA-MB-231 cells; experiment: Anti-proliferation Assay (2 hours treatment at pH 7.4 or 5.0, 72 hours growth, MTT); details: for cell killing (printed 49% versus 100%): 1.25 μM treatment
Procedure: FIG. 3A, FIG. 3C and FIG. 3E show HeLa cells treated with pHLIP(WT)-MMAE, pHLIP(D25E)-MMAE, and MMAE(linker), respectively. FIG. 3B, FIG. 3D and FIG. 3F show MDA-MB-231 cells treated with pHLIP(WT)-MMAE, pHLIP(D25E)-MMAE, and MMAE(linker), respectively. Black columns represent cells treated at pH 7.4 and cells treated at low pH are shown in grey. For each condition, 3,000 cells/well (96-well plate) were seeded, allowed to adhere overnight, treated for 2 hours, washed once with media and grown for 72 hour in complete medium at physiologic pH. Cell viability was assessed with the MTT assay. All measurements were normalized to the media control (0 μM, pH 7.4), as 100% cell viability. Results are shown as mean±SD (n=6-9).
Anti-proliferation Assay. HeLa and MDA-MB-231 cells were seeded in 96-well plates at a density of 3,000 cells/well and incubated overnight. Before treatment, construct aliquots were solubilized in an appropriate volume of DMEM without FBS (pH 7.4)—so that upon pH adjustment the desired treatment concentration is obtained—and gently sonicated for 30-60 seconds using a bath sonicator (Branson Ultrasonics). After removal of cell media, this treatment solution was added to each well and incubated at 37° C. for 5-10 minutes. The pH was then adjusted to the desired value using a pre-established volume of DMEM, pH 2.0 buffered with citric acid (final volume=50 μL) and the plate was incubated at 37° C. for 2 hours. After treatment, the media was removed, cells were washed once with 100 μL of complete DMEM, and 100 μL of complete medium was added to each well before returning the plate to the incubator. Treatment solutions were collected and their pH values measured using a micro-combination pH probe (Microelectrodes, Inc.). […] Cell viability was determined after 72 hours using the colorimetric MTT assay. Briefly, 10 μL of a 5 mg/mL MTT stock solution was added to the treated cells and incubated for 2 hours at 37° C. The resulting formazan crystals were solubilized in 200 μL DMSO and the absorbance measured at 580 nm using an Infinite 200 PRO microplate reader (Tecan). Cell viability was calculated against control cells treated with media at physiologic pH.
Inhibition of Cell Proliferation. The ability of pHLIP to move MMAE across the cell membrane and to inhibit cancer cell proliferation in concentration and pH-dependent manners was evaluated. Cell treatments for both pHLIP(WT)-MMAE and pHLIP(D25E)-MMAE constructs were carried out with conjugate concentrations ranging from 1.25 to 10 μM at either pH 7.4 or 5.0. After a 2-hour incubation at 37° C., the treatment media was replaced by fresh media, and cells were grown for an additional 72 hours at normal pH before assessing cell viability using the MTT assay. […] This treatment protocol is quite stringent when compared to the typical multi-days exposure treatments used with free drugs (FIG. 6A and FIG. 6B).

[2] = for Trp fluorescence emission maxima: POPC liposomes; for insertion in lipid bilayers: acidic conditions
Procedure: State I corresponds to the peptides in an aqueous environment is shown in black, state II: peptides in the presence of lipid membranes at pH 7.4, shown in blue and state III: peptides in the presence of lipids at pH 5.0 is shown in red. [peptide]=7 μM and peptide-lipid ratio=1:300 with POPC liposomes.
Preparation of POPC Liposomes. Ten milligrams of POPC in chloroform were dried and then held under vacuum overnight. The dried lipid film was rehydrated with 1 ml of 5 mM sodium phosphate, pH 8.0, and mixed by vigorous vortex. The resulting multilamellar vesicle solution was freeze-thawed in liquid nitrogen for seven cycles and were extruded through a polycarbonate membrane with […] diameter pores using a mini extruder (Avanti Polar Lipids) to produce large unilamellar vesicles. Liposomes were used immediately following their preparation. Lipid concentration was checked using the Marshall's assay and the size distribution was verified by dynamic light scattering analysis performed at a scattering angle of 90° using an ALV/GSC-3 goniometer system equipped with ALV/ALV-7004 correlator (ALV-GmbH, Langen, Germany).
Sample preparation for Circular Dichroism and Tryptophan Fluorescence Measurements. Prior to CD or fluorescence measurements, lyophilized aliquots of pHLIP constructs were resuspended to 20 μM with 5 mM sodium phosphate, pH 8.0, and incubated for 1 hour at room temperature. This stock solution was diluted to a final concentration of 7 μM and, when appropriate, incubated with POPC liposomes at a 1:300 peptide-to-lipid molar ratio for 30 minutes at room temperature. Subsequently, samples were adjusted to the desired experimental pH values with the addition of aliquots of an HCl solution to elicit pH-dependent insertion. Samples were allowed to equilibrate at the desired pH for 30 minutes at room temperature before spectroscopic measurements.
Tryptophan Fluorescence Spectroscopy. All measurements were carried out using a Cary Eclipse Fluorescence Spectrophotometer (Varian), and performed at 25° C. with pHLIP construct concentrations equal to 7 μM. Samples were excited at 295 nm and the emission spectra were taken from 300 to 500 nm, with the slit widths for emission and excitation both set 5 nm.
Circular Dichroism Spectroscopy. Far-UV CD spectra of pHLIP constructs were recorded on Jasco J-815 CD spectrometer equipped with a Peltier thermal-controlled cuvette holder (Jasco, Inc.). All measurements were performed in 0.1 mm quartz cuvette at 25° C. with pHLIP constructs concentrations equal to 7 μM. CD intensities are expressed in mean residue molar ellipticity [θ] calculated from the following equation: […]

[3] = test system: HeLa cells; details: 10 μM, 2 hours, pH 7.4 or pH 5.0
Procedure: (§1) The integrity of the plasma membrane is assessed by the uptake of trypan blue dye. 3,000 cells/well of HeLa (FIG. 4A) and MDA-MB-231 (FIG. 4B) cells were seeded, allowed to adhere overnight and treated with 10 μM conjugates or media alone (no peptide) for 2 hours at pH 7.4 (black bars) or pH 5.0 (grey bars). Cells were detached and counted based on trypan blue uptake with a hemacytometer: % of intact cells corresponds to the number of cells not showing any dye uptake over the total number of cells. Results are shown as mean±SD (n=4).
(§2) Cell Membrane Integrity Assay. HeLa and MDA-MB-231 cells were seeded in 96-well plates at a density of 3,000 cells/well and incubated until confluent (˜72 hours). Before treatment, construct aliquots were solubilized in an appropriate volume of DMEM without FBS (pH 7.4) so that upon pH adjustment 10 μM is obtained. Cell media was removed, the treatment solution was added to each well and cell were incubated at 37° C. for 5-10 minutes. The pH was then adjusted to the desired value using a pre-established volume of DMEM, pH 2.0 buffered with citric acid (final volume=50 μL). The plate was incubated at 37° C. for 2 hours. After treatment, the media was removed, cells were detached using trypsin and counted based on trypan blue uptake using a hemacytometer.

[4] = test system: MDA-MB-231 cells; details: 10 μM, 2 hours, pH 7.4 or pH 5.0
Procedure: as §1, §2

Substance	cell killing (printed 49% versus 100%) [1]	inhibition of proliferation ([1]; normal pH)	Trp fluorescence emission maxima ([2]; pH 5.0)	Trp fluorescence emission maxima ([2]; pH 7.4)	insertion in lipid bilayers [2]	disruption of the plasma membrane [3]	disruption of the plasma membrane [4]
I: H-AAEQNPIYWARYADWLFTTPLLLLDLALLVDADEGTCG-OH / II: [Mpa][NMeV]V[Dil][Dolaproine]-X1 (disulfide I:37-II:1) [pHLIP(WT)-MMAE]	100%	no significant inhibition of proliferation	334 nm	348 nm	can insert in lipid bilayers under acidic conditions to form stable transmembrane α-helices	neither conjugates, nor low pH treatment, caused disruption of the membranes	neither conjugates, nor low pH treatment, caused disruption of the membranes
I: H-AAEQNPIYWARYADWLFTTPLLLLELALLVDADEGTCG-NH2 / II: [Mpa][NMeV]V[Dil][Dolaproine]-X1 (disulfide I:37-II:1) [pHLIP(D25E)-MMAE]	49%	–	329 nm	347 nm	can insert in lipid bilayers under acidic conditions to form stable transmembrane α-helices	neither conjugates, nor low pH treatment, caused disruption of the membranes	neither conjugates, nor low pH treatment, caused disruption of the membranes
